Measured values as given in PMC11313944, “Ethyl Acetate Fraction from Eleutherococcus divaricatus Root Extract as a Promising Source of Compounds with Anti-Hyaluronidase, Anti-Tyrosinase, and Antioxidant Activity but Not Anti-Melanoma Activity” (Molecules, 2024).
Marks after values point to notes of the source that are not given here. One block for each compound: values may come before it.

Assays:
[1] = molecular target: hyaluronidase from bovine testes (bHYAL) (Bos taurus, UniProt Q2YDK3); experiment: Bovine hyaluronidase inhibition assay (CTAB turbidimetric); type: biochemical
Sequence of hyaluronidase from bovine testes (bHYAL) (Q2YDK3 entry or part of it): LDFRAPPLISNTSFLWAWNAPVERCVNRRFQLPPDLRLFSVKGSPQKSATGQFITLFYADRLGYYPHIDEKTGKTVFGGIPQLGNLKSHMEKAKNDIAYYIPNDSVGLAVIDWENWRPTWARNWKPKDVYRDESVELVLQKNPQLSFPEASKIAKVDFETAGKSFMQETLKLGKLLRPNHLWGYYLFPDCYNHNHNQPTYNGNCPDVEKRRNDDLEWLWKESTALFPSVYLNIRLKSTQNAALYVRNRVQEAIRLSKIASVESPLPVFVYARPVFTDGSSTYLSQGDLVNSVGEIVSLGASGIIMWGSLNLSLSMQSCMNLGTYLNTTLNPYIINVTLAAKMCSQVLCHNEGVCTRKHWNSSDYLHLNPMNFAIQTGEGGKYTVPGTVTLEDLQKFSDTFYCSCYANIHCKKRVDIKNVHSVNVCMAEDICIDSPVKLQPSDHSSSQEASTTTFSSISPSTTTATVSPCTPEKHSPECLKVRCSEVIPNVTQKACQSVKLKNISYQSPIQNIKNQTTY
Method: Bovine hyaluronidase inhibitor assays were conducted in 96-well plates, following a modified method originally described by Di Ferrante and Studzińska-Sroka. The activity of the compounds or extracts was determined based on the precipitation of non-hydrolyzed hyaluronic acid using cetyltrimethylammonium bromide (CTAB). A 10% water solution of DMSO was used to dissolve the extract. Then, 15 μL of extracts at concentrations of 10.0, 1.0, and 0.1 mg/mL in the well were mixed with an acetate buffer (15 μL, pH = 5.35), an incubation buffer (25 μL, pH = 5.35, 0.01% BSA, 0.45% NaCl), and an enzyme solution (25 μL, 30 U/mL in the incubation buffer). This mixture was incubated at 37 °C for 10 min. Following this, a hyaluronic acid solution (25 μL, 0.3 mg/mL in an acetate buffer with a pH of 5.35) was added. The plates were then incubated for an additional 45 min at 37 °C. After incubation, non-hydrolyzed hyaluronic acid was precipitated by adding 2.5% CTAB (200 μL). The plates were then maintained at 25 °C for 10 min. The intensity of the complex formation was measured at a wavelength of 600 nm. The presence of inhibition was determined by measuring the absorbance of the solution without the inhibitor (AC) and the enzyme (AT). All samples were tested in triplicate. The inhibition of hyaluronidase was calculated using a specific equation, with aescin used as a standard. INHHYAL=AS−AC/AT−AC∗100%
(§1) AS—absorbance of the HA + sample + enzyme;
(§2) AC—absorbance of the HA + enzyme;
(§3) AT—absorbance of the HA + sample.

[2] = system: mushroom tyrosinase (mTYR); experiment: Tyrosinase inhibition assay (L-tyrosine substrate); type: biochemical; conditions: phenolic acid and eleutheroside standards (Table 6)
Method: Tyrosinase inhibitor assays were conducted in 96-well plates using a modified method originally described by Wróbel-Biedrawa. The process involves the conversion of […] to L-DOPA, then to DOPA-quinone, facilitated by the tyrosinase enzyme. This reaction results in the solution turning brown. In brief, 10 μL of the sample (concentrations of 10.0, 1.0, and 0.1 mg/mL in 10% DMSO) was combined with 150 μL of a phosphoric buffer containing mushroom tyrosinase (pH = 6.88, 100 U/mL). This mixture was then incubated for 10 min at room temperature. […] Following incubation, L-tyrosine (0.3 mg/mL) was added to each well, and the absorbance was measured at 492 nm (using a kinetic model every 5 min). Two time points (t1 and t2) were selected within the linear range of the graph. All samples were tested in triplicate. […] INHTYR=AC−AS/AC∗100%
AS—the difference in absorbance between times t2 and t1 for the sample;
AC—the difference in absorbance between times t2 and t1 for the positive control.

[3] = ABTS free radical scavenging activity; conditions: 30 min incubation
Method: The ABTS free radical scavenging test was conducted following the method outlined by Wu et al. A working solution of ABTS+ was prepared by combining 10 mL of ABTS (7 mM in H2O) with 10 mL of potassium persulfate (2.45 mM in H2O). This mixture was then left to incubate in the dark for 12 h. The ABTS solution was subsequently diluted with water until it reached an absorbance of 0.700 ± 0.03 at 405 nm. Then, volumes of 10 μL of extracts at concentrations of 1 mg/mL, 0.1 mg/mL, and 0.01 mg/mL (dissolved in MeOH) were combined with 190 μL of the ABTS+ solution and incubated for 30 min. The absorbance at 405 nm was measured after the incubation period. Butylated hydroxyanisole (BHA) was used as a control. The antioxidant activity was then calculated using a specific equation. INHABTS=AC−AS/AC∗100%
AS—the absorbance for sample + ABTS;
AC—the absorbance without sample + ABTS.

[4] = DPPH free radical scavenging activity; conditions: 60 min incubation
Method: The DPPH free radical scavenging test was conducted according to the procedure established by Naseer et al.. A working solution of DPPH• was prepared by dissolving 24 mg of DPPH in 100 mL of […]. This solution was further diluted with methanol until it reached an absorbance of 0.900 ± 0.03 at 515 nm. Subsequently, volumes of 10 μL of extracts at concentrations of 1 mg/mL, 0.1 mg/mL, and 0.01 mg/mL (dissolved in MeOH) were combined with 190 μL of the DPPH• solution and allowed to incubate for 60 min. The absorbance at 515 nm was measured post incubation. Butylated hydroxyanisole (BHA) was used as a control. The antioxidant activity was then calculated using a specified equation. INHDPPH=AC−AS/AC∗100%
AS—the absorbance for sample + DPPH;
AC—the absorbance without sample + DPPH.

[5] = Iron (II) ion chelation assay (ferrozine); conditions: results for 1 mg/mL
Method: The ion chelation assay was conducted using the method proposed by Li et al. [54]. Initially, 100 μL of extract at a concentration of 1.0 mg/mL was combined with methanol (150 μL, MeOH) and iron(II) chloride (5 μL, FeCl2) at a concentration of 2 mM. Subsequently, 5 μL of ferrozine was added at a concentration of 5 mM. Following a period of incubation, the absorbance was measured at a wavelength of 510 nm. The degree of chelation was then calculated using a specific equation, with ethylenediaminetetraacetic acid (EDTA) serving as a positive control. INHFe^2+=AC−AS/AC∗100%
AS—the absorbance for sample + ferrozine + FeCl2;
AC—the absorbance without sample + ferrozine + FeCl2.

hyaluronidase = conditions: cited from earlier work
SK-MEL-30 melanoma cells = experiment: MTT viability assay, SK-MEL-30; type: cell-based, human
Method: (§4) The following human melanoma cell lines were used in this study: A375 (ATCC:CRL-1619), UACC-647 (CVCL_4049), and SK-MEL-30 (DSMZ:ACC 151). A375 cells were maintained in Dulbecco’s Modified Eagle’s Medium (DMEM). UACC-647 and SK-MEL-30 were cultured in RPMI-1640. All basal media were supplemented with fetal bovine serum (FBS) at a final concentration of 10%. The control used in the study was BJ foreskin fibroblasts (ATCC:CRL-2522). To facilitate the growth of BJ cells, Eagle’s Minimum Essential Medium (EMEM) with 10% FBS was utilized. Tissue culture-treated Petri dishes were used to support all cell lines. A temperature of 37 °C and 5% CO2 were maintained routinely. The cells were expanded for a few passages, then seeded onto 96-well plates, where they were left to attach overnight. The following day, the cells were exposed to E. divaricatus fractionated extracts at descending concentrations, starting from 200 µg/mL, or to a vehicle (DMSO, 0.1%). Alternatively, the cells were treated with doxorubicin (DOX) to independently determine the inhibitory concentrations causing the 10, 50, and 90% levels of maximal inhibition (IC10, IC50, and IC90, respectively) of cellular viability for each melanoma cell line. Then, the melanoma cells were treated with the DOX at IC10, IC50, or IC90, followed by the addition of the fractions of the extracts from E. divaricatus at a dose of 200 µg/mL. Upon 24 h of incubation, the viability of the cells was assessed by MTT assay.
(§5) Dose–response curves were obtained using GraphPad Prism 8.4.3 software running on a personal computer. Experimental datapoints were fitted to the sigmoidal equation, and the IC50 value was calculated. IC10 and IC90 values were computed using a web tool available at https://www.graphpad.com/ accessed on 20 May 2023.

UACC-647 melanoma cells = experiment: MTT viability assay, UACC-647; type: cell-based, human
Method: as §4, §5

A375 melanoma cells = experiment: MTT viability assay, A375; type: cell-based, human
Method: as §4, §5

[6] = system: MCF-7 human breast adenocarcinoma cell line; set-up: method as in PMID 25918798; conditions: read-out: IC50 antiproliferative; cited from earlier work
[7] = molecular target: T1, human serum hyaluronidase (hHYAL) (Homo sapiens, UniProt Q12794); experiment: Human serum hyaluronidase inhibition, serum of children with acute lymphoblastic leukemia; type: biochemical; conditions: mean over sera of 5 patients
T1 construct: from tissue; host or cells: serum of children diagnosed with acute lymphoblastic leukemia
T1 sequence (Q12794 22-435): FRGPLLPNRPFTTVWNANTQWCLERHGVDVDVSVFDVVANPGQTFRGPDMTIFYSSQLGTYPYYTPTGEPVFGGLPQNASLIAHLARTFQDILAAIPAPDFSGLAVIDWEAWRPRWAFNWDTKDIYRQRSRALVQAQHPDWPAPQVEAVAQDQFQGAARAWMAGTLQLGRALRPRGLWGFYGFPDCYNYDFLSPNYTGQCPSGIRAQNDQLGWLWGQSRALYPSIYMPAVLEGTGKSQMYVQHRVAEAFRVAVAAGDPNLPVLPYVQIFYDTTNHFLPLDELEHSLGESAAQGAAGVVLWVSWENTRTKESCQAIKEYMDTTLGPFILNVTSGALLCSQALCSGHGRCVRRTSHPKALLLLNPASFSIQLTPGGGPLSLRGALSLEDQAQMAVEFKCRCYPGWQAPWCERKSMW
Method: Five boys diagnosed with acute lymphoblastic leukemia (ALL) before starting treatment were included in the study. These patients were diagnosed at the Department of Pediatric Hematology and Oncology at Jurasz University Hospital in Bydgoszcz, Poland, between 2019 and 2020. Venous blood samples were collected from each child while fasting and placed into serum tubes supplied by Becton Dickinson, located in Franklin Lakes, NJ, USA. The blood samples were left to clot at room temperature for 30 min, then centrifuged for 20 min at 2000× g, also at room temperature. The samples were then collected and stored at a temperature of −80 °C until the time of analysis. The study was approved by the local Bioethics Committee (approval number 608/2019) and was conducted in accordance with the Declaration of Helsinki.
The inhibition of human serum hyaluronidase was assessed using modified methods. The activity of the compounds or extracts was determined by precipitating non-hydrolyzed hyaluronic acid with cetyltrimethylammonium bromide (CTAB). […] The intensity of the complex formation was measured at a wavelength of 600 nm. […] The inhibition of hyaluronidase was calculated using a specific equation, with aescin used as a standard. […]
as §1, §2, §3

[8] = system: human hyaluronidase (hHYAL); conditions: cited from earlier work
[9] = phenolic acid and eleutheroside standards (Table 6)
[10] = Homo sapiens, A-375, A375, 24 h

Compound: COc1cc(/C=C/CO)cc(OC)c1O[C@@H]1O[C@H](CO)[C@@H](O)[C@H](O)[C@H]1O [Eleutheroside B, syringin 4-β-D-glucoside]
IC50 bHYAL [1, 9]: no activity | IC50 mTYR [2]: no activity

IC50 ABTS [3]: 2.27 ± 0.07 ^a µg/mL | IC50 DPPH [4]: 24.93 ± 0.28 ^ab µg/mL
Compound: O=C1O[C@H]([C@@H](O)CO)C(O)=C1O [AA, ascorbic acid]

Compound: COc1cc(C2OCC3C(c4cc(OC)c(O[C@@H]5O[C@H](CO)[C@@H](O)[C@H](O)[C@H]5O)c(OC)c4)OCC23)cc(OC)c1O[C@@H]1O[C@H](CO)[C@@H](O)[C@H](O)[C@H]1O (single isomer, unassigned; (-)) [Eleutheroside E, (−)-siringaresinol 4,4″-O-β-D-diglucoside]
IC50 bHYAL [1, 9]: no activity | IC50 mTYR [2]: no activity

Compound: O=C(O)CN(CCN(CC(=O)O)CC(=O)O)CC(=O)O [EDTA, ethylenediaminetetraacetic acid]
Ferrozine (iron(II) chelation) [5]: 98.9 ± 0.01%

Compound: COc1ccc(O)c(C(C)(C)C)c1 [BHA, Butylated hydroxyanisole]
IC50 ABTS [3]: 2.35 ± 0.11 ^a µg/mL | IC50 DPPH [4]: 62.52 ± 4.13 ^ab µg/mL

IC50 mTYR [2]: 56.22 ± 0.67 ^a µg/mL
Compound: O=C(O)/C=C/c1ccc(O)c(O)c1 [Caffeic acid]

Compound: O=C(/C=C/c1ccc(O)c(O)c1)O[C@H](Cc1ccc(O)c(O)c1)C(=O)O [rosmarinic acid]
IC50 (hyaluronidase): 545 µM

IC50 (SK-MEL-30 melanoma cells; Homo sapiens, SK-MEL-30, 24 h, read-out: IC50 (50% of maximal inhibition of viability)): 1.52 µM | IC90 (SK-MEL-30 melanoma cells; Homo sapiens, SK-MEL-30, 24 h, read-out: IC90 (90% of maximal inhibition of viability)): 9.63 µM | IC50 (UACC-647 melanoma cells; Homo sapiens, UACC-647, 24 h): 1.16 µM | IC90 (UACC-647 melanoma cells; Homo sapiens, UACC-647, 24 h): 3.76 µM | IC50 (A375 melanoma cells; [10]): 0.33 µM | IC90 (A375 melanoma cells; [10]): 1.19 µM
Compound: COc1cccc2c1C(=O)c1c(O)c3c(c(O)c1C2=O)C[C@@](O)(C(=O)CO)C[C@@H]3O[C@H]1C[C@H](N)[C@H](O)[C@H](C)O1 [DOX, doxorubicin]
maximal drop of viability (SK-MEL-30 melanoma cells; SK-MEL-30): 81.87% | IC10 (10% of maximal inhibition of viability) (SK-MEL-30 melanoma cells; SK-MEL-30, 24 h): 0.24 µM | maximal suppression of viability (UACC-647 melanoma cells; UACC-647): 39.15% | IC10 (UACC-647 melanoma cells; UACC-647, 24 h): 0.36 µM | maximal level of inhibition of viability (A375 melanoma cells; A375): 96.38% | IC10 (A375 melanoma cells; A375, 24 h): 0.09 µM | inhibition of viability (A375 melanoma cells; A375, DOX alone at IC90): 96%

Compound: O=C1OCc2c1c(-c1ccc3c(c1)OCO3)c1cc3c(cc1c2O)OCO3 [taiwanin E]
IC50 [6]: 1.47 µM

Compound: O=C(O)c1ccc(O)c(O)c1 [Protocatechuic acid]
IC50 mTYR [2]: 134.57 ± 3.46 ^b µg/mL

IC50 bHYAL ([1]; fractions of the 75% methanol extract and control (Table 5)): 388.8 ± 1.81 ^b µg/mL | hHYAL inhibition, mean group value [7]: 63.8%
Compound: aescin
inhibition of human hyaluronidase activity, range [8]: 20.00–47.37% | inhibition of hyaluronidase activity, mean group value [8]: 40%

IC50 mTYR [2]: 107.52 ± 3.46 ^ab µg/mL
Compound: O=C(/C=C/c1ccc(O)c(O)c1)O[C@@H]1C[C@](O)(C(=O)O)C[C@@H](O)[C@H]1O [Chlorogenic acid]

Compound: Eleutheroside E1
IC50 bHYAL [1, 9]: no activity | IC50 mTYR [2]: no activity

IC50 ABTS [3]: 2.85 ± 0.18 ^ab µg/mL | IC50 DPPH [4]: 13.68 ± 3.53 ^a µg/mL
Compound: Cc1c(C)c2c(c(C)c1O)CCC(C)(C(=O)O)O2 (centres unmarked) [TROLOX, 6-hydroxy-2,5,7,8-tetramethylchroman-2-carboxylic acid]
